From the supplement of paper PMC10307832

Compound: CN1CCN(CC1)C2=CC(=C(C=C2)NC3=NC=C4C(=N3)N(C5=CC=CC=C5C(=O)N4C)C)OC [XMD8-85] + CS(=O)(=O)CCNCc1ccc(-c2ccc3ncnc(Nc4ccc(OCc5cccc(F)c5)c(Cl)c4)c3c2)o1 [Lapatinib] (partner 2 µM)
Assay: relative viability (nuclei count vs DMSO), 5 days (fraction); higher = more cells survive
Conditions: first compound 0.08 µM
Method in brief: (§1)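 Relative viability divides the nuclei count in treated wells by that in vehicle wells. Lung cancer cell lines were seeded in 1536-well plates, dosed by pin tool the next day, and fixed and stained after 5 days in one step with final 0.05% Triton X-100, 1% formaldehyde and 1 ug/ml Hoechst. Dosing was a single drug or a fixed anchor-drug dose plus five library-drug doses (not always all listed) in √10 steps, and values are medians of duplicate plates imaged at 4×.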

Cell Line | relative viability
NCI-H1651 | 0.764
NCI-H1666 | 0.58
NCI-H1734 | 1.05
NCI-H1755 | 0.943
NCI-H1915 | 0.954
NCI-H1944 | 0.784
NCI-H1975 | 0.897
NCI-H1993 | 0.662
NCI-H2009 | 0.934
NCI-H2023 | 0.649
NCI-H2085 | 0.791
NCI-H2087 | 1.01
NCI-H2126 | 0.705
NCI-H2228 | 0.827
NCI-H2347 | 0.892
NCI-H2405 | 1.04
NCI-H3122 | 1.12
PC-3 [JPC-3] | 0.405
PC-14 | 0.32
RERF-LC-KJ | 0.871
SK-LU-1 | 0.549
SK-MES-1 | 0.443
SW 1573 | 1.1
UMC-11 | 0.835

Same assay, conditions: first compound 0.253 µM

Cell Line | relative viability
NCI-H1563 | 0.87
NCI-H1651 | 0.842
NCI-H1666 | 0.709
NCI-H1734 | 0.977
NCI-H1755 | 1.1
NCI-H1915 | 1.01
NCI-H1944 | 0.733
NCI-H1975 | 0.832
NCI-H1993 | 0.755
NCI-H2009 | 0.931
NCI-H2023 | 0.755
NCI-H2085 | 0.778
NCI-H2087 | 1.08
NCI-H2126 | 0.714
NCI-H2228 | 0.93
NCI-H2347 | 0.958
NCI-H2405 | 1.18
NCI-H3122 | 1.01
PC-3 [JPC-3] | 0.466
PC-14 | 0.398
RERF-LC-KJ | 0.795
SK-LU-1 | 0.892
SK-MES-1 | 0.493
SW 1573 | 1.21
UMC-11 | 0.853

Same assay, conditions: first compound 0.8 µM

Cell Line | relative viability
NCI-H1563 | 1.01
NCI-H1651 | 0.96
NCI-H1666 | 0.92
NCI-H1734 | 1.03
NCI-H1755 | 1.05
NCI-H1915 | 1.09
NCI-H1944 | 0.897
NCI-H1975 | 0.886
NCI-H1993 | 0.93
NCI-H2009 | 1.01
NCI-H2023 | 0.957
NCI-H2085 | 0.815
NCI-H2087 | 1.05
NCI-H2126 | 0.757
NCI-H2228 | 1.14
NCI-H2347 | 0.9
NCI-H2405 | 1.13
NCI-H3122 | 1.04
PC-3 [JPC-3] | 0.477
PC-14 | 0.276
RERF-LC-KJ | 0.905
SK-LU-1 | 0.852
SK-MES-1 | 0.446
SW 1573 | 1.02
UMC-11 | 1.17

Same assay, conditions: first compound 2.53 µM

Cell Line | relative viability
NCI-H1563 | 0.822
NCI-H1651 | 0.977
NCI-H1666 | 0.816
NCI-H1734 | 1.17
NCI-H1755 | 1.17
NCI-H1915 | 0.986
NCI-H1944 | 1.02
NCI-H1975 | 1.1
NCI-H1993 | 0.819
NCI-H2009 | 0.841
NCI-H2023 | 1.02
NCI-H2085 | 0.719
NCI-H2087 | 1.12
NCI-H2126 | 0.837
NCI-H2347 | 1.02
NCI-H2405 | 1.1
NCI-H3122 | 1.09
PC-3 [JPC-3] | 0.492
PC-14 | 0.38
RERF-LC-KJ | 0.989
SK-LU-1 | 1.07
SK-MES-1 | 0.464
SW 1573 | 1.09
UMC-11 | 0.976

Same assay, conditions: first compound 8 µM

Cell Line | relative viability
NCI-H1563 | 0.7
NCI-H1651 | 0.555
NCI-H1666 | 0.499
NCI-H1734 | 0.987
NCI-H1755 | 0.996
NCI-H1915 | 0.921
NCI-H1944 | 0.702
NCI-H1975 | 0.441
NCI-H1993 | 0.774
NCI-H2009 | 0.456
NCI-H2023 | 0.516
NCI-H2085 | 0.566
NCI-H2087 | 0.974
NCI-H2126 | 0.646
NCI-H2228 | 0.549
NCI-H2347 | 0.771
NCI-H2405 | 0.636
NCI-H3122 | 0.965
PC-3 [JPC-3] | 0.422
PC-14 | 0.268
RERF-LC-KJ | 0.769
SK-LU-1 | 0.699
SK-MES-1 | 0.419
SW 1573 | 0.885
UMC-11 | 0.724

Compound: CN1CCN(CC1)C2=CC(=C(C=C2)NC3=NC=C4C(=N3)N(C5=CC=CC=C5C(=O)N4C)C)OC [XMD8-85] + C[C@]1(O)C[C@@H](c2nc(-c3ccc4ccc(-c5ccccc5)nc4c3)c3c(N)nccn32)C1 [Linsitinib] (partner 1 µM)
Assay: as above
Conditions: first compound 0.08 µM
Method in brief: as §1

Cell Line | relative viability
NCI-H1563 | 1.2
NCI-H1651 | 0.957
NCI-H1666 | 1.04
NCI-H1734 | 1.01
NCI-H1755 | 1.06
NCI-H1915 | 1.15
NCI-H1944 | 1.1
NCI-H1975 | 1.01
NCI-H1993 | 0.814
NCI-H2009 | 1.17
NCI-H2023 | 0.564
NCI-H2085 | 0.585
NCI-H2087 | 0.929
NCI-H2126 | 0.69
NCI-H2228 | 0.587
NCI-H2347 | 0.91
NCI-H3122 | 1.03
PC-3 [JPC-3] | 0.958
PC-14 | 1.06
RERF-LC-KJ | 0.826
SK-LU-1 | 0.947
SK-MES-1 | 1.09
SW 1573 | 0.873
UMC-11 | 1.01

Same assay, conditions: first compound 0.253 µM

Cell Line | relative viability
NCI-H1563 | 1.26
NCI-H1651 | 0.909
NCI-H1666 | 0.79
NCI-H1734 | 0.766
NCI-H1755 | 1.01
NCI-H1915 | 1.15
NCI-H1944 | 1.26
NCI-H1975 | 0.908
NCI-H1993 | 0.669
NCI-H2009 | 1.12
NCI-H2023 | 0.811
NCI-H2085 | 0.943
NCI-H2087 | 1.01
NCI-H2228 | 0.944
NCI-H2347 | 0.923
NCI-H2405 | 0.912
NCI-H3122 | 0.95
PC-3 [JPC-3] | 0.994
PC-14 | 0.849
RERF-LC-KJ | 0.903
SK-LU-1 | 1.11
SK-MES-1 | 0.942
SW 1573 | 0.802
UMC-11 | 0.922

Same assay, conditions: first compound 0.8 µM

Cell Line | relative viability
NCI-H1563 | 1.13
NCI-H1651 | 0.945
NCI-H1666 | 0.859
NCI-H1734 | 0.863
NCI-H1755 | 1
NCI-H1915 | 1.08
NCI-H1944 | 1.25
NCI-H1975 | 0.981
NCI-H1993 | 0.812
NCI-H2009 | 1.21
NCI-H2023 | 0.76
NCI-H2085 | 0.935
NCI-H2087 | 1.09
NCI-H2126 | 0.766
NCI-H2228 | 0.609
NCI-H2347 | 0.808
NCI-H2405 | 0.951
NCI-H3122 | 1.03
PC-3 [JPC-3] | 1.02
PC-14 | 0.914
RERF-LC-KJ | 0.881
SK-LU-1 | 1.12
SK-MES-1 | 0.95
UMC-11 | 1.15

Same assay, conditions: first compound 2.53 µM

Cell Line | relative viability
NCI-H1563 | 1.27
NCI-H1651 | 1.08
NCI-H1666 | 0.769
NCI-H1734 | 0.816
NCI-H1755 | 1.09
NCI-H1915 | 1.16
NCI-H1944 | 1.44
NCI-H1975 | 1.03
NCI-H1993 | 0.718
NCI-H2009 | 1.23
NCI-H2023 | 0.657
NCI-H2085 | 0.885
NCI-H2087 | 1.06
NCI-H2126 | 0.726
NCI-H2228 | 0.858
NCI-H2347 | 1.04
NCI-H2405 | 0.735
NCI-H3122 | 1.06
PC-3 [JPC-3] | 1.09
PC-14 | 0.843
RERF-LC-KJ | 0.804
SK-LU-1 | 1.07
SK-MES-1 | 1
SW 1573 | 0.698
UMC-11 | 0.848

Same assay, conditions: first compound 8 µM

Cell Line | relative viability
NCI-H1563 | 0.844
NCI-H1651 | 0.659
NCI-H1666 | 0.696
NCI-H1734 | 0.607
NCI-H1755 | 0.907
NCI-H1915 | 0.999
NCI-H1944 | 1.04
NCI-H1975 | 0.498
NCI-H1993 | 0.704
NCI-H2009 | 0.636
NCI-H2023 | 0.34
NCI-H2085 | 0.674
NCI-H2087 | 0.7
NCI-H2126 | 0.681
NCI-H2228 | 0.444
NCI-H2347 | 0.796
NCI-H2405 | 0.739
NCI-H3122 | 1.09
PC-14 | 0.86
RERF-LC-KJ | 0.883
SK-LU-1 | 0.91
SK-MES-1 | 0.964
SW 1573 | 0.655
UMC-11 | 0.512
